{"source": "patent US9302014B2", "about": "“Cell-penetrating peptides having a central hydrophobic domain” (Medical Research Council, priority 2011, dated 2016)", "key": {"[1]": {"system": "dystrophin", "experiment": "In vivo exon skipping and dystrophin production in mdx mice (combined RNA and protein read-outs)", "conditions": "lead PPMO comparison; TA, quadriceps, diaphragm and heart; 8 week old mdx mice, 12.5 mg/kg IV, 2 weeks", "from_the_text": "Given the potency of Pip5e-PMO in heart tissue, the aim of altering the sequence of the hydrophobic core (whilst maintaining the 5-aa length) was to identify peptides that might be more efficient at lower doses. These modifications included inversion of the hydrophobic region (Pip6a), substitution of tyrosine by isoleucine (Pip6b), substitution of glutamine in the Pip6a sequence by displacement of the arginine immediately flanking the core in the first arginine-rich flanking region (Pip6e), and a scrambled hydrophobic core sequence (Pip6f). All Pip6 peptide-PMO conjugates were administered to mdx mice as single 12.5 mg/kg intravenous injections via the tail vein and tissues were harvested 2 weeks later and assessed for activity at both RNA and protein levels. […]\nImmunohistochemical staining (data not shown) was used to visualise the production of dystrophin protein (and its correct re-location at the sarcolemma) and RT-PCR was used to detect exon-skipped products in treated mdx muscle groups. qPCR allows for the quantification of the spliced product and Western blots were used to quantify the amount of dystrophin protein produced in muscles from treated mdx mice as compared with C57BL10 and untreated mdx controls. […]"}, "[2]": {"system": "dystrophin", "experiment": "Immunohistochemical staining and quantification of dystrophin in mdx mice after single IV injection", "type": "in vivo", "conditions": "8 week old mdx mice, single 12.5 mg/kg IV, 2 weeks after injection", "from_the_text": "Given the potency of Pip5e-PMO in heart tissue, the aim of altering the sequence of the hydrophobic core (whilst maintaining the 5-aa length) was to identify peptides that might be more efficient at lower doses. These modifications included inversion of the hydrophobic region (Pip6a), substitution of tyrosine by isoleucine (Pip6b), substitution of glutamine in the Pip6a sequence by displacement of the arginine immediately flanking the core in the first arginine-rich flanking region (Pip6e), and a scrambled hydrophobic core sequence (Pip6f). All Pip6 peptide-PMO conjugates were administered to mdx mice as single 12.5 mg/kg intravenous injections via the tail vein and tissues were harvested 2 weeks later and assessed for activity at both RNA and protein levels.\nImmunohistochemical staining quantification (FIGS. 34a, b) was performed as previously described [Malerba, A., et al., Chronic systemic therapy with low-dose morpholino oligomers ameliorates the pathology and normalizes locomotor behavior in mdx mice. Mol Ther, 2011. 19(2): p. 345-54; Arechavala-Gomeza, V., et al., Immunohistological intensity measurements as a tool to assess sarcolemma-associated protein expression. Neuropathol Appl Neurobiol, 2010. 36(4): p. 265-74.] and was achieved by taking 4 representative frames of the dystrophin staining and correlating this with laminin staining for each section (n=3) of the quadriceps, diaphragm and heart for each peptide-PMO treatment. Untreated mdx and treated mdx mice were normalised to C57BL10 mice. This method allows comparison of the staining intensity of dystrophin at the sarcolemma relative to laminin for each treatment group. Intensity ratios are normalised to C57BL10 samples and each region of interest at the sarcolemma (120 regions for each treatment group) is plotted on a scatter graph. […]\nTransverse sections of tissue samples were cut (8 μm thick) for the examination of dystrophin expression. For dystrophin visualisation and quantification, sections were co-stained with rabbit-anti-dystrophin (Abcam) and rat anti-laminin (Sigma), and detected by goat-anti-rabbit IgG Alexa 594 and goat-anti-rat IgG 488 secondary antibodies respectively (Invitrogen). […] Quantitative immunohistochemistry was performed as previously described [Malerba, A., et al., Chronic systemic therapy with low-dose morpholino oligomers ameliorates the pathology and normalizes locomotor behavior in mdx mice. […] For quantification, 4 representative frames of the dystrophin and correlating laminin were taken for each section (n=3) of the quadriceps, diaphragm and heart for each treatment. […] The minimum and maximum fluorescence intensity for 120 regions were recorded for each treatment. […]"}}, "note": "Non-standard residues stand in square brackets, D forms with d. No end group written: not given here. Ahx = NCCCCCC(=O)O; βAla = NCCC(=O)O", "data": [{"substance": "Pip9d2: Pip9 series peptide (SEQ ID Nos 320-328) conjugated to PMODMD (R[Ahx]RR[βAla]RFQILY[βAla]R[Ahx]R[βAla]; also: conjugated to PMO (PMODMD))", "values": [{"measurement": "levels of exon-skipped dystrophin RNA and protein", "setting": "[1]", "value": "negligible dystrophin production"}, {"measurement": "dystrophin expression in the heart", "setting": "[2]", "value": "negligible dystrophin production"}]}]}
